The source of these data is ChEMBL document CHEMBL1146522, “Two new xanthone derivatives from the algicolous marine fungus Wardomyces anomalus” (2003).

Activity calls are given as the source filed them. The calls are words filed in the database; no cut-off is given here.

As usually defined, the inhibition is the drop in the measured response relative to a control, in per cent.

The subject of test [1] is Radical scavenging activity. The test can be described thus: Antioxidant activity assessed as DPPH radical scavenging activity at 500 ug/mL. Format: functional. For orientation: The DPPH test is a chemical assay of radical scavenging.
Test [2] has as its system Radical scavenging activity. The test can be described thus: Antioxidant activity assessed as DPPH radical scavenging activity at 50 ug/mL. It is filed as functional.
Test [3] concerns Radical scavenging activity. The test can be described thus: Antioxidant activity assessed as DPPH radical scavenging activity at 100 ug/mL. Format: functional.
The subject of test [4] is Radical scavenging activity. The test can be described thus: Antioxidant activity assessed as DPPH radical scavenging activity at 25 ug/mL. It is filed as functional.
Test [5] can be described thus: Antioxidant activity assessed as inhibition of peroxidation of linolenic acid at 37 ug/mL by TBARS assay. It is filed as functional.
Test [6] can be described thus: Antioxidant activity assessed as inhibition of peroxidation of linolenic acid at 7.4 ug/mL by TBARS assay. It is filed as functional.
The subject of test [7] is Escherichia coli. The test can be described thus: Antibacterial activity against Escherichia coli 50 ug/disk by agar diffusion method. Format: functional, organism-based.
Test [8] deals with Tyrosine-protein kinase Lck (Homo sapiens) (UniProt P06239). The test can be described thus: Inhibition of p56-LCK assessed as residual enzyme activity at 200 ug/mL.
In test [9] the test system is [Chlorella] fusca. The test can be described thus: Antimicrobial activity against Chlorella fusca 50 ug/disk by agar diffusion method. The note with it: Scenedesmus fuscus. It is filed as functional, organism-based. Background: A growth-free zone around the sample is the usual read-out of agar diffusion tests.
Test [10] has as its system Microbotryum violaceum. The test can be described thus: Antifungal activity against Microbotryum violaceum 50 ug/disk by agar diffusion method. Format: functional.
Test [11] concerns Mycotypha microspora. The test can be described thus: Antifungal activity against Mycotypha microspora 50 ug/disk by agar diffusion method. Format: functional, organism-based.
The test system of test [12] is Priestia megaterium. The test can be described thus: Antibacterial activity against Bacillus megaterium 50 ug/disk by agar diffusion method. It is filed as functional.
The target of test [13] is Human immunodeficiency virus type 1 reverse transcriptase (Human immunodeficiency virus 1) (UniProt Q72547). The test can be described thus: Inhibition of HIV1 reverse transcriptase assessed as residual enzyme activity at 66 ug/mL.
Test [14] concerns Aspergillus pseudoglaucus. The test can be described thus: Antifungal activity against Eurotium repens 50 ug/disk by agar diffusion method. It is filed as functional.

Tyrosine-protein kinase Lck (Homo sapiens), sequence (P06239 2-509 limits assumed): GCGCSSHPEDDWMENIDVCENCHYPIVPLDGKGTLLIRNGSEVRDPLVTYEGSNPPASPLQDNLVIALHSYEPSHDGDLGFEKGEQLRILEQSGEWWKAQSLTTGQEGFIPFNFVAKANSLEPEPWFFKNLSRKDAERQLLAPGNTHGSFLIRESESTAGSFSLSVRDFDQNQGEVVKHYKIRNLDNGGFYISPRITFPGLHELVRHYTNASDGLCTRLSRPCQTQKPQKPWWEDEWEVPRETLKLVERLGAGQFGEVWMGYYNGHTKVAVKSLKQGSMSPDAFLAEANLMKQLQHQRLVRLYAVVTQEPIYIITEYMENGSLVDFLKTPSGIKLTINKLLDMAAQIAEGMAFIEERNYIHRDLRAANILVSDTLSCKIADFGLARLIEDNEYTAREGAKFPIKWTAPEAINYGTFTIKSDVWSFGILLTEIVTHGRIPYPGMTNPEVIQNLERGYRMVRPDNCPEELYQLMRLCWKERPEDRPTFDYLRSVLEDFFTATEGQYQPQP

Consider `Cc1cc(C(C)(C)C)c(O)c(C(C)(C)C)c1`, for which the Activity was 87.8% in test [1], 83.1% in test [2], 89.1% in test [3] and 73.4% in [4]. Further, the values for the inhibition in test [5] and in [6] were 48.5% and 42.8%, respectively.

Turning to `O=C(O)c1ccc(CO)o1`, the result in [7], in test [9], in test [10], in test [11], in test [12] and in test [14] was inactive. Besides, the Activity amounted to 0% in test [8]; 97% in [1]; 53.4% in [2]; 87.7% in test [3]; 30.7% in test [4]; 98.3% in test [13]. Moreover, the inhibition was determined as 7.4% in test [5] and 2.6% in [6].

As for `Cc1c(O)c(O)cc2oc3cc(O)cc(O)c3c(=O)c12` [ANOMALIN A], the result in [7], in test [9] and in [12] was inactive. In addition, the Activity in test [8] stood at 0%; in [1], 95.4%; in [2] it was 94.8%; in test [3] it was 95.2%; in test [4] it was 94.7%; in [13], 82.2%. In addition, in test [10], the “inhibition zone (IZ)” value was found to be 1 mm. Also, the inhibition came to 37% in test [5] and 17% in test [6].

Regarding `Cc1cc(O)cc2oc3cc(O)cc(O)c3c(=O)c12` [NORLICHEXANTHONE], the Activity was 0% in test [8]; 90.6% in test [1]; 12.9% in [2]; 25.3% in [3]; 6.2% in test [4]; 82.9% in test [13]. The result in [9] was inactive. Besides, the “inhibition zone (IZ)” value in [12] and in [14] was 1 mm throughout. Besides, in test [6], the inhibition was -7.4%.
